Test results published in patent publication US10851098B2, “Azole amides and amines as alpha v integrin inhibitors” (BRISTOL-MYERS SQUIBB COMPANY, priority 2016, dated 2020).

biological target: T1, human αVβ6 (Homo sapiens, UniProt P06756+P18564); assay: human αVβ6 HTRF binding assay
T1 construct: purchased R & D systems 3817-AV
Protocol: All binding assays used the HTRF (homogeneous time resolved fluorescence) technology from Cisbio International, therefore all assays are described as HTRF binding assays. The assay results for the Examples are listed above together with the characterization data. The HTRF binding assays are established for the following integrins: human αVβ6, human αVβ1, human αVβ3, human αVβ5, and human αVβ8. All assays used the following assay buffer: 20 mM Tris, pH 7.4, 1 mM MgCl2, 1 mM MnCl2, 0.01% Tween 20, and 0.01% BSA. Alternatively, a SPA-based assay was used for evaluation of receptor binding.
[…]

T1 sequence (P06756 31-992 limits assumed): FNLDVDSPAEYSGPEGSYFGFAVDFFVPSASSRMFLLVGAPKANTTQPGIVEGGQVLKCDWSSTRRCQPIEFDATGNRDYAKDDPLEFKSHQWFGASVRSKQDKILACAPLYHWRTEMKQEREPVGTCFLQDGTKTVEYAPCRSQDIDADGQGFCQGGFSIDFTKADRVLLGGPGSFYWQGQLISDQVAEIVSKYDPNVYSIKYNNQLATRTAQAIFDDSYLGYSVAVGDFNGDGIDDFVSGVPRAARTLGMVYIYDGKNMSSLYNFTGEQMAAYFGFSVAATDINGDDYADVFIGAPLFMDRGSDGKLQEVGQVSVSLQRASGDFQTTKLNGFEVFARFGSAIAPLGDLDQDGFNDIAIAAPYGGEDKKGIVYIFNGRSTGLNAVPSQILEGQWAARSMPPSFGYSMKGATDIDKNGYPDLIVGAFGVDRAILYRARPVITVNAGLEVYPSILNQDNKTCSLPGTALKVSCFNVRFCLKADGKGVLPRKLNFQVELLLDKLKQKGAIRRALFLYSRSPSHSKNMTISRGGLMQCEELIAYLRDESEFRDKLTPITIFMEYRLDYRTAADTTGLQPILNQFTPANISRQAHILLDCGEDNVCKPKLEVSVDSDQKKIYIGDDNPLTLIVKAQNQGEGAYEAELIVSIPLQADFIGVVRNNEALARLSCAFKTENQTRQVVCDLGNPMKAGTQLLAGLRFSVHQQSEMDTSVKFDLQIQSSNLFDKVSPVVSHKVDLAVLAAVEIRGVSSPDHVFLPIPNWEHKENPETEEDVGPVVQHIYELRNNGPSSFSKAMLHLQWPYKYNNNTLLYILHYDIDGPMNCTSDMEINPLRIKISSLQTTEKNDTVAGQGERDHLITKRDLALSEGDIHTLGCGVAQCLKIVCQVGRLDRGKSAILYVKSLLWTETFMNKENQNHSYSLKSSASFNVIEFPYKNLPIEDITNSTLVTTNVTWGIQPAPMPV
T1 sequence (P18564 22-707 limits assumed): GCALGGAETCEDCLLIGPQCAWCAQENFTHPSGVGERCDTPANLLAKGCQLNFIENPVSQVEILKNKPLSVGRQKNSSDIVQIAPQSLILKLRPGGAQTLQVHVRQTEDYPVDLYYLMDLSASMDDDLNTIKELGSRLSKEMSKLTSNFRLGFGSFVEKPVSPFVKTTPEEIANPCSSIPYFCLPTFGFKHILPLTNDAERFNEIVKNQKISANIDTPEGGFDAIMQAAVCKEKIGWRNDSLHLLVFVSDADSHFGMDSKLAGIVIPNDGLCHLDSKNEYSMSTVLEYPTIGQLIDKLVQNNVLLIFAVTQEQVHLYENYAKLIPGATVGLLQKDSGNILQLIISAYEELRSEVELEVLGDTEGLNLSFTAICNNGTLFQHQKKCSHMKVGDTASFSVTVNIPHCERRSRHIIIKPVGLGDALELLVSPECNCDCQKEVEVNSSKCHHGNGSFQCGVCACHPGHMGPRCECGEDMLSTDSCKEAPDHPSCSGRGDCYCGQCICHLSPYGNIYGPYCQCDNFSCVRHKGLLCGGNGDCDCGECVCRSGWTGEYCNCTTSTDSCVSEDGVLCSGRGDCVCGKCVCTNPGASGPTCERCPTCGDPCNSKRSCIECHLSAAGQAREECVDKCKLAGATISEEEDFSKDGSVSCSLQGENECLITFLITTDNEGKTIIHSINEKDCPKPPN

IC50 [nM] | SMILES
130 | O=C(O)CC(NC(=O)c1cnn(CCc2ccc3c(n2)NCCC3)c1CO)c1cccc(F)c1 (stereo not shown) [Example 75]
1420 | O=C(O)CC(Cc1ccccc1)NC(=O)c1cnn(CCc2ccc3c(n2)NCCC3)c1 (stereo not shown) [Example 99]
40 | O=C(O)CC(NC(=O)c1cnn(CCc2ccc3c(n2)NCCC3)c1CO)c1ccc(Cl)c(Cl)c1 (stereo not shown) [Example 58]
41 | O=C(O)C[C@H](NC(=O)c1cnn(CCCNC2=NCCN2)c1)c1cc(Cl)cc(Cl)c1 [Example 8, (S)-3-(3,5-Dichlorophenyl)-3-(1-(3-((4,5-dihydro-1H-imidazol-2-yl)amino)propyl)-1H-pyrazole-4-carboxamido)propanoic acid]
2.9 | O=C(NC[C@H](NS(=O)(=O)Cc1ccc(Cl)cc1Cl)C(=O)O)c1cnn(CCc2ccc3c(n2)NCCC3)c1 [Example 165]
46 | O=C(O)C[C@H](NC(=O)c1cnn(CCCc2ccc3c(n2)NCCC3)c1)c1cc(Cl)cc(Cl)c1 [Example 60]
22 | CN(C(=O)c1cn(CCc2ccc3c(n2)NCCC3)nc1C(F)(F)F)[C@@H](CC(=O)O)c1cc(Cl)cc(Cl)c1 [Example 48]
2210 | Cc1nc2c(cc1Cn1ncc(C(=O)N[C@@H](CC(=O)O)c3cc(Cl)cc(Cl)c3)n1)CCCN2 [Example 14, (S)-3-(3,5-Dichlorophenyl)-3-(2-((2-methyl-5,6,7,8-tetrahydro-1,8-naphthyridin-3-yl)methyl)-2H-1,2,3-triazole-4-carboxamido)propanoic acid]
10 | O=C(O)CC(NC(=O)c1cnn(CCc2ccc3c(n2)NCCC3)c1CO)c1ccc(Cl)c(C(F)(F)F)c1 (stereo not shown) [Example 35]
3.1 | CN(C(=O)c1cnn(CCc2ccc3c(n2)NCCC3)c1)[C@@H](CC(=O)O)c1cc(Cl)cc(Cl)c1 [Example 25]
339 | COc1ccc([C@H](CC(=O)O)NC(=O)c2cnn(CCCc3ccc4c(n3)NCCC4)c2)cn1 [Example 87]

More lines, now with the values behind:

SMILES | IC50 [nM]
Cc1nn(CCc2ccc3c(n2)NCCC3)c(C)c1C(=O)NC(CC(=O)O)c1ccc(C(F)(F)F)cc1 (stereo not shown) [Example 77] | 134
O=C(NC[C@H](NS(=O)(=O)Cc1ccncc1)C(=O)O)c1cnn(CCc2ccc3c(n2)NCCC3)c1 [Example 167] | 9.5
Cc1ccc(CS(=O)(=O)N[C@@H](CNC(=O)c2cnn(CCc3ccc4c(n3)NCCC4)c2)C(=O)O)cc1 [Example 161] | 15
O=C(NC[C@H](NS(=O)(=O)Cc1ccc(C(F)(F)F)cc1)C(=O)O)c1cnn(CCc2ccc3c(n2)NCCC3)c1 [Example 150] | 5.7
COc1ccc(S(=O)(=O)N[C@@H](CNC(=O)c2cnn(CCc3ccc4c(n3)NCCC4)c2)C(=O)O)cc1 [Example 19, (S)-2-((4-Methoxyphenyl)sulfonamido)-3-(1-(2-(5,6,7,8-tetrahydro-1,8-naphthyridin-2-yl)ethyl)-1H-pyrazole-4-carboxamido)propanoic acid] | 1.3
Cc1cc(C)c(C(=O)N[C@@H](CNC(=O)c2cnn(CCc3ccc4c(n3)NCCC4)c2)C(=O)O)c(C)c1 [Example 15, (S)-3-(1-(2-(5,6,7,8-Tetrahydro-1,8-naphthyridin-2-yl)ethyl)-1H-pyrazole-4-carboxamido)-2-(2,4,6-trimethylbenzamido)propanoic acid] | 0.9
Cc1cc(CS(=O)(=O)N[C@@H](CNC(=O)c2cnn(CCc3ccc4c(n3)NCCC4)c2)C(=O)O)no1 [Example 158] | 29
O=C(O)CC(NC(=O)c1cnn(CCc2ccc3c(n2)NCCC3)c1CO)c1cccc(-n2cccc2)c1 (stereo not shown) [Example 64] | 64
Cc1cc(C)c(S(=O)(=O)N[C@@H](CNC(=O)c2cnn(Cc3cc4c(nc3C)NCCC4)n2)C(=O)O)c(C)c1 [Example 118] | 223
CCS(=O)(=O)N[C@@H](CNC(=O)c1cnn(CCc2ccc3c(n2)NCCC3)c1)C(=O)O [Example 126] | 10
O=C(N[C@@H](CNC(=O)c1cnn(CCc2ccc3c(n2)NCCC3)c1)C(=O)O)OCC(F)(F)F [Example 153] | 1.6
